Test results taken from patent US11795145B2, “Methane-production inhibitor composition and method for inhibiting methane production” (KUMIAI CHEMICAL INDUSTRY CO., LTD., priority 2020, dated 2023).

Legend:
[1] = test system: paddy field soil microorganisms; test: Test Example 3: comparative test of methane-production inhibition with existing inhibitor BES in flooded paddy field soil (headspace GC); type: cell-based; conditions: 0.5 mg/kg dry soil; for Methane-production amount (mg/L) 21 days after treatment: 21 days static incubation at 30° C., untreated plot 69.3; for Methane-production amount (mg/L) 28 days after treatment: 28 days static incubation at 30° C., untreated plot 119.2
Protocol: In a glass vial (21.5 mL volume) for headspace analysis, 4.0 g of paddy field soil (provisional specific gravity 1.18 g/cm^3) was weighed, and 8 mL of distilled water was added. In this flooded soil, a plot to which 20 μL of acetone solution containing 100 ppm of Compound I-1 was added (0.5 mg/kg dry soil (equivalent to 590 g/ha)) is provided as Example 10, a plot to which 20 μL of an aqueous solution containing 100 ppm of BES (a comparative compound) and acetone was added (0.5 mg/kg dry soil) is provided as Comparative Example 3, and an untreated plot to which 20 μL of acetone was added is provided as Comparative Example 4. After 100 μL of a culture solution of paddy field soil microorganisms was added to these glass vials, the vials were tightly sealed using septum and aluminum caps, and allowed to stand at 30° C. for static incubation. After 21 and 28 days of incubation treatment, 0.5 mL of gas was collected from a headspace in a glass vial sample using a gas tight syringe and analyzed for methane production by gas chromatography (GC). The comparative compound, BES (CAS No.: 4263-52-9; 2-Bromoethanesulfonate), is an existing methane-production inhibitor and a product manufactured by Tokyo Chemical Industry Co., Ltd.

[2] = test system: methane-producing bacteria; conditions: 80 mg/kg; paddy fields during rice cultivation; cited from earlier work
dairy cattle = conditions: feed treated with from 40 to 80 mg/kg; cited from earlier work
[3] = test system: paddy field soil microorganisms; test: Test Example 2: methane-production inhibition test by various methane-production inhibitors in flooded paddy field soil (headspace GC); type: cell-based; conditions: for Methane-production amount compared to untreated plot: 0.5 mg/kg dry soil treatment; for Methane-production amount (mg/L) 21 days after treatment / Methane-production amount (mg/L) 28 days after treatment: 0.5 mg/kg dry soil; for Methane-production amount (mg/L) 21 days after treatment: 21 days static incubation at 30° C., untreated plot 19.6; for Methane-production amount (mg/L) 28 days after treatment: 28 days static incubation at 30° C., untreated plot 44.3
Protocol: In a glass vial (21.5 mL volume) for headspace analysis, 4.0 g of paddy field soil (provisional specific gravity 1.18 g/cm^3) was weighed, and 8 mL of distilled water was added. In this flooded soil, plots to which 40 μL of acetone solution containing 50 ppm of the compounds listed in Table 2 below were added (0.5 mg/kg dry soil (equivalent to 590 g/ha)), respectively, were provided as Examples 4 to 9. As Comparative Example 2, an untreated plot to which 40 μL of acetone was added was provided. After 100 μL of a culture solution of paddy field soil microorganisms was added to these glass vials, the vials were tightly sealed using septum and aluminum caps, and allowed to stand at 30° C. for static incubation. After 21 and 28 days of incubation treatment, 0.5 mL of gas was collected from a headspace in a glass vial sample using a gas tight syringe and analyzed for methane production by gas chromatography (GC).

[4] = test system: paddy field soil microorganisms; test: Test Example 1: methane-production inhibition test by Compound I-1 in flooded paddy field soil (headspace GC); type: cell-based; conditions: for Methane-production amount (mg/L) 21 days after treatment: 21 days static incubation at 30° C., untreated plot 34.0; for Methane-production amount (mg/L) 28 days after treatment: 28 days static incubation at 30° C., untreated plot 38.9
Protocol: In a glass vial (21.5 mL volume) for headspace analysis, 4.0 g of paddy field soil (provisional specific gravity 1.18 g/cm^3) was weighed, and 8 mL of distilled water was added. In this flooded soil, a plot to which 40 μL of 10 ppm Compound I-1-containing acetone solution was added (0.1 mg/kg dry soil (equivalent to 118 g/ha)) was provided as Example 1, and a plot to which 20 μL of 100 ppm Compound I-1-containing acetone solution was added (0.5 mg/kg dry soil (equivalent to 590 g/ha)) and a plot to which 40 μL of 100 ppm Compound I-1-containing acetone solution was added (1 mg/kg dry soil (equivalent to 1180 g/ha)) were provided as Examples 2 and 3. As Comparative Example 1, an untreated plot to which 40 μL of acetone was added was provided. After 100 μL of a culture solution of paddy field soil microorganisms was added to these glass vials, the vials were tightly sealed using septum and aluminum caps, and allowed to stand at 30° C. for static incubation. After 21 and 28 days of incubation treatment, 0.5 mL of gas was collected from a headspace in a glass vial sample using a gas tight syringe and analyzed for methane production by gas chromatography (GC). The amount treatment (g) per 1 ha was converted according to the OECD Guideline Test No. 307 issued in 2002, based on the provisional specific gravity of the paddy field soil used.

## O=S(=O)([O-])CCBr.[Na+] [BES, 2-Bromoethanesulfonate, reference compound]
[1]
  Methane-production amount compared to untreated plot: reduced
  Methane-production amount (mg/L) 21 days after treatment: 32.9 mg/L
  Methane-production amount (mg/L) 28 days after treatment: 80.5 mg/L
[2]
  Reduction of methane emissions compared to a control area: 49%

## O=[N+]([O-])OCCCO [Compound 3-NOP, 3-nitrooxypropanol]
Dairy cattle
  Reduction of methane emissions from dairy cattle: 30%

## O=C(Oc1ccc(OS(=O)(=O)CCl)cc1)c1ccccc1 [Compound I-1]
[1]
  Methane reduction amount relative to the reduction amount due to the comparative compound: significantly greater
  Methane-production amount compared to untreated plot: reduced
  Methane-production amount (mg/L) 21 days after treatment: 13.4 mg/L
  Methane-production amount (mg/L) 28 days after treatment: 34.2 mg/L
[3]
  Methane-production amount compared to untreated plot: particularly high reduction effect
  Methane-production amount (mg/L) 21 days after treatment: 2.5 mg/L
  Methane-production amount (mg/L) 28 days after treatment: 3.8 mg/L
[4]; 0.1 mg/kg dry soil (Example 1)
  Methane-production amount compared to untreated plot: reduced
[4]; 0.1 mg/kg dry soil
  Methane-production amount (mg/L) 21 days after treatment: 9.1 mg/L
  Methane-production amount (mg/L) 28 days after treatment: 21.3 mg/L
[4]; 0.5 mg/kg dry soil and above (Examples 2 and 3)
  Methane-production reduction effect compared to untreated plot: higher reduction effect
[4]; 0.5 mg/kg dry soil
  Methane-production amount (mg/L) 21 days after treatment: 2.8 mg/L
  Methane-production amount (mg/L) 28 days after treatment: 3.7 mg/L
[4]; 1 mg/kg dry soil
  Methane-production amount (mg/L) 21 days after treatment: 2.5 mg/L
  Methane-production amount (mg/L) 28 days after treatment: 3.1 mg/L

## O=S(=O)(CCl)Oc1ccc(O)cc1 [Compound I-2]
[3]
  Methane-production amount compared to untreated plot: particularly high reduction effect
  Methane-production amount (mg/L) 21 days after treatment: 2.5 mg/L
  Methane-production amount (mg/L) 28 days after treatment: 4.4 mg/L

## O=S(=O)(CCl)c1ccc(Br)cc1 [Compound I-3]
[3]
  Methane-production amount (mg/L) 21 days after treatment: 5.3 mg/L
  Methane-production amount (mg/L) 28 days after treatment: 14.7 mg/L

## O=S(=O)(CCl)c1ccc(O)cc1 [Compound I-4]
[3]
  Methane-production amount (mg/L) 21 days after treatment: 5.4 mg/L
  Methane-production amount (mg/L) 28 days after treatment: 16.7 mg/L

## O=S(=O)(CO)c1ccc(Br)cc1 [Compound I-5]
[3]
  Methane-production amount (mg/L) 21 days after treatment: 15.7 mg/L
  Methane-production amount (mg/L) 28 days after treatment: 24.3 mg/L

## CS(=O)(=O)Oc1ccc(O)cc1 [Compound I-6]
[3]
  Methane-production amount (mg/L) 21 days after treatment: 16.7 mg/L
  Methane-production amount (mg/L) 28 days after treatment: 28.3 mg/L
